From patent US5066644A, “Derivatives of thiazolidine-4-carboxylic acid, its preparation and pharmaceutical compositions containing it” (Poli Industria Chimica S.p.A., priority 1989, dated 1991)
Non-standard residues stand in square brackets, D forms with d. Residues, ends and D or L forms follow the SMILES beside them. ξ: configuration not given here. *: point of attachment. pGlu = O=C1CC[C@@H](C(=O)O)N1; Morpholide = C1CN(*)CCO1; ξThz = O=C(O)C1CSCN1

Columns and labels:
Assay type in all cases: in vivo
peritoneal macrophages = assay: Superoxide anion production by peritoneal macrophages from prednisolone-immunodepressed mice; details: 200 mg/kg/die i.p. + prednisolone 0,5 mg/kg/die/s.c.; macrophages stimulated with phorbol myristate acetate
Source text: Since the production of superoxide anion (O2 ) plays an important role in the microbicidal activity of macrophages (N. P. Cumming, M. J. Pabst, J.Exp.Med., 152, 1649, 1980), the showing of a stimulation of the superoxide anion in the macrophages by drugs provides a very important test for the evaluation of immunostimulating activity. The production of O2 in peritoneal macrophages isolated from prednisolone immunodepressed animals treated with the compounds of the invention was therefore evaluated. The mice were treated subcutaneously for two days with 0.5 mg/kg/day of prednisolone and with the compounds under examination at the dose of 100 mg/kg twice a day, whereas the morning of the animals sacrifice the animals received the compounds only. The macrophages were then isolated by means of a peritoneal washing and cultured in RPMI-1640 added with 10% foetal calf serum, at the concentration of 1×10^6 cells/ml at the temperature of ±37° C. Amounts of 1 ml of cell suspension were incubated for 15' at 37° C. with horse heart cytochrome C and stimulated with phorbol myristate acetate (H. Nielsen, Eur.J.Clin.Pharmacol., 30, 90, 1986). A specrophotometric determination at λ=550 nm of the reduced ferricytochroma using an extinction coefficient E(550)=29.5 mM was then carried out. As it turns out from Table 1, the prednisolone treatment induces an immunosuppression resulting in a lesser production of superoxide anion; the contemporaneous treatment with the compounds of the invention stimulates the 02 production by macrophages up to values close to those of control animals. The compounds have an activity which is from similar to higher than that of PGT at equiponderal doses.

E. coli = assay: Endoperitoneal E. coli infection in mice; details: 200 mg/kg/die os; for N° dead mice/N° treated mice: death-rate recorded 7-8 days after infection
Description: The compounds were tested in endoperitoneal infection in mice. Male COBS CD-1 mice weighing 22-25 g were inoculated i.p. with 0.5 ml/mouse of a pathogenic E.coli suspension (in saline solution+0.5% porcine gastric mucine), having a transmittance of about 50%. The mice were treated orally with the compounds twice a day from two days before until the day of the infection, 7 hours before the inoculation.
The death-rate was recorded for about 7-8 days after the infection.

[1] = system: delayed hypersensitivity by DNCB; assay: Delayed hypersensitivity induced by DNCB in prednisolone-immunodepressed mice; details: 200 mg/kg/die os; for Weight left ear/Weight right ear: 24 hours after challenge; for Increase %: vs. control group
Description: Male COBS CD-2 mice weighing about 30 g were sensitized with 25 μl of dinitrochlorobenzene (DNCB) at the concentration of 20 mg/ml in acetone applied on a zone of the abdomen depilated at least 2 hours before.
After 12 hours the animals were challenged with 5 μl of DNCB at the concentration of 10 mg/ml in acetone applied on the external surface of the left auricolar pinna.
In order to carry out this operation the mice were slightly anesthetized with ether. The mice were treated with the compounds under examination from two days before until the day of sensitization and with the compounds and with prednisolone (0.5 mg/kg/die s.c.; 0.5 ml/10 g) from the tenth day after sensitization until the day when challenge occurred.
The animals were killed 24 hours after the challenge; both ears were cut and weighed. The values are expressed as the ratio between the left ear (sensitized) and the right one (unsensitized). […] The increase was higher than that obtained after oral administration of PGT.

rosette forming cells = assay: Rosette forming cells (primary response) in prednisolone-immunodepressed mice; details: 200 mg/kg/die os; for Rosette forming cells change %: vs. control group
Description: The compounds of the invention are also active in the test of the rosette forming cells (primary response; II° type) in prednisolone immunodepressed mice (S. D. Wilson, Immunology, 21, 233, 1971).
Male COBS CD-1 mice weighing about 25 g were treated for 7 days twice a day, with the compounds of the invention and at the second and third day with prednisolone at the dose of 5 mg/kg/s.c. (0.05 ml/10 g).
After 4 days from the start of the treatment the
10 animals were immunized with 5×10^8 sheep red blood cells in 0.2 ml of PBS by intraperitoneal route. The red blood cells were prepared by centrifugating the citrated sheep blood at 1500 rpm for 15 min.; the precipitated red blood cells were washed twice at 1200 rpm for 10 min. in PBS removing the first layer, then suspended again in PBS and counted adjusting at 2.5×10^9 cells/ml.
After 6 days from the immunization the rosette test was carried out by killing the mice and removing the spleen, which was placed in 1 ml of Hank solution in ice-bath and then triturated, homogenated and gauze-filtered. The homogenate was washed twice in Hank, centrifugating at 1200 rpm for 10 min. and then suspended again. The suspension was adjusted to 6×10^7 cells/ml by counting at the Coulter Counter after lysis of the red blood cells. 100 μl of spleen cells suspension (6×10^7 /ml)+100 μl of red blood cells suspension (3×10^8 /ml) were mixed in 0.8 ml of Hank stirring slightly for 1 minute. The samples were incubated for 24 h at+4° C. avoiding any stirring. The samples were then stirred and the number of rosette forming cells/ml was evaluated by means of the Burker apparatus.

[2] = system: reticulo-endothelial system; assay: Activity of the reticulo-endothelial system (colloidal charcoal clearance) in cyclophosphamide-immunodepressed mouse; details: 100 mg/kg/die i.p.; for Absorbance Δ (0'-20'): means ± SE of 10 mice, absorbance at 640 nm
Description: The compounds of the invention are also active in the test of the activity of the reticulo-endothelial system in the mouse immunodepressed by cyclophosphamide (Biozzi G. et al., Brit. J. Path., 34, 441, 1953). COBS CD-1 mice were injected i.v. with colloidal charcoal (0.32 ml of china ink/ml of saline), 10 μl of retroorbital blood were then taken out immediately before and after 1, 10 and 20 min. from the intravenous injection, the blood sample was placed in 3 ml of HCl 0.1 N and the absorbance was evaluated at 640 nm and the change of absorbance was evaluated between the time 0 and 20 min. The animals were treated with cyclophosphamide (100 mg/kg i.p.) from the third to the fifth day of treatment and with the compounds under test for 10 consecutive days; the day after the last treatment the test was carried out.

Row | SMILES | nmol cytochrome C reduced/1 × 10^6 macrophages (mean ± S.E.) (peritoneal macrophages) | Protection (%) (E. coli) | N° dead mice/N° treated mice (E. coli) | Weight left ear/Weight right ear [1] | Increase % [1] [%] | Rosette forming cells/spleen cells % (rosette forming cells) [%] | Rosette forming cells change % (rosette forming cells) | Variation versus the cyclophosphamide treated group % [2] | Absorbance Δ (0'-20') [2]
1 | NC(=O)C1CSCN1C(=O)[C@@H]1CCC(=O)N1 (stereo partly drawn) [Ia, 3-Pyroglutamyl-thiazolidine-4-carboxamide] ([pGlu]-[ξThz]-NH2) | 9.25 ± 0.48 nmol cytochrome C reduced/1 × | 40 | 6/10 | 1.688 ± 0.029 | 27.68 | 1.140 ± 0.032 | +34.12% | +15.62% | 0.370 ± 0.013
2 | O=C1CC[C@@H](C(=O)N2CSCC2C(=O)N2CCOCC2)N1 (stereo partly drawn) [Ib, N-(3-Pyroglutamyl-thiazolidine-4-carbonyl)morpholine] ([pGlu]-[ξThz]-Morpholide) | 9.62 ± 0.63 nmol cytochrome C reduced/1 × | 40 | 6/10 | 1.702 ± 0.026 | 28.74 | 1.138 ± 0.038 | +33.88% | +19.37% | 0.382 ± 0.021
3 | CCNC(=O)C1CSCN1C(=O)[C@@H]1CCC(=O)N1 (stereo partly drawn) [Ic, N-(3-pyroglutamyl-thiazolidine-4-carbonyl)-ethylamine] ([pGlu]-[ξThz]-NHEt) | 7.83 ± 0.72 nmol cytochrome C reduced/1 × | 40 | 6/10 | 1.706 ± 0.028 | 29.05 | 1.145 ± 0.032 | +34.71% | +15.94% | 0.371 ± 0.016
4 | O=C1CC[C@@H](C(=O)N2CSCC2C(=O)O)N1 (stereo partly drawn) [PGT, 3-pyroglutamyl-thiazolidine-4-carboxylic acid, reference compound] ([pGlu]-[ξThz]-OH) | 8.85 ± 0.75 nmol cytochrome C reduced/1 × | 20 | 8/10 | 1.579 ± 0.027 | 19.44 | 1.125 ± 0.040 | +32.35% | +14.06% | 0.365 ± 0.018
